Test results taken from the supplement of paper PMC10331698.
± gives the standard deviation of the averaged measurements.

How the values were obtained:
Test in all cases: level (log10 ratio to DMSO vehicle control); higher = higher biomarker level / cell amount than vehicle control
Conditions in all cases: in DMSO
[1] = compound: FC(F)(F)C(F)(F)C(F)(F)C(F)(F)C(F)(F)C(F)(F)C(F)(F)I [1-Iodopentadecafluoroheptane]
Procedure: (§1)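 BioMAP Diversity Plus panel of 12 human primary cell co-culture systems (3C, 4H, LPS, SAg, BT, BF4T, BE3C, CASM3C, HDF3CGF, KF3CT, MyoF, Mphg). Compounds were added 1 h before stimulation and left for 24 h (MyoF 48 h; BT 72 h for soluble read-outs or 6 d for IgG). Biomarkers were read by ELISA, cytotoxicity by SRB, PBMC viability and proliferation by Alamar Blue. Each well value was divided by the mean of 8 DMSO control wells on the same plate and log10 transformed; duplicate blinded samples were tested at 4 concentrations.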

[2] = compound: O=S(=O)(O)CCC(F)(F)C(F)(F)C(F)(F)C(F)(F)C(F)(F)C(F)(F)F [6:2 Fluorotelomer sulfonic acid]
Procedure: as §1

Octafluoroadipamide = compound: NC(=O)C(F)(F)C(F)(F)C(F)(F)C(F)(F)C(N)=O [Octafluoroadipamide]
Procedure: as §1

[3] = compound: O=S(=O)(Cl)C(F)(F)C(F)(F)C(F)(F)C(F)(F)C(F)(F)C(F)(F)C(F)(F)C(F)(F)F [Perfluoro-1-octanesulfonyl chloride]
Procedure: as §1

Heptafluorobutyl iodide = compound: FC(F)(F)C(F)(F)C(F)(F)CI [Heptafluorobutyl iodide]
Procedure: as §1

[4] = compound: FC(F)(F)C(F)(F)C(F)(F)C(F)(F)C(F)(F)C(F)(F)CC1CO1 [3-(Perfluorohexyl)-1,2-epoxypropane]
Procedure: as §1

[5] = compound: O=S(=O)(F)C(F)(F)C(F)(F)C(F)(F)C(F)(F)C(F)(F)C(F)(F)C(F)(F)C(F)(F)F [Perfluorooctanesulfonyl fluoride]
Procedure: as §1

Test System | level (log10) ([1]; 6700 nM) | level (log10) ([1]; 20000 nM) | level (log10) ([2]; 6700 nM) | level (log10) ([2]; 20000 nM) | level (log10) ([2]; 60000 nM) | level (log10) (Octafluoroadipamide; 6700 nM) | level (log10) (Octafluoroadipamide; 20000 nM) | level (log10) (Octafluoroadipamide; 60000 nM) | level (log10) ([3]; 6700 nM) | level (log10) ([3]; 20000 nM) | level (log10) ([3]; 60000 nM) | level (log10) (Heptafluorobutyl iodide; 6700 nM) | level (log10) (Heptafluorobutyl iodide; 20000 nM) | level (log10) (Heptafluorobutyl iodide; 60000 nM) | level (log10) ([4]; 6700 nM) | level (log10) ([4]; 20000 nM) | level (log10) ([4]; 60000 nM) | level (log10) ([5]; 6700 nM) | level (log10) ([5]; 20000 nM) | level (log10) ([5]; 60000 nM)
lMphg:M-CSF | -0.0015 ± 0.042 | 0.015 ± 0.0014 | 0.0045 ± 0.0078 | -0.023 ± 0.028 | -0.0145 ± 0.0064 | -0.017 ± 0.0028 | -0.0065 ± 0.0035 | 0.0045 ± 0.00071 | -0.023 ± 0.042 | -0.012 ± 0.031 | 0.0215 ± 0.04 | -0.026 ± 0.014 | -0.0165 ± 0.005 | -0.0245 ± 0.039 | -0.01 ± 0.0071 | -0.0305 ± 0.0078 | -0.0145 ± 0.021 | -0.006 ± 0.03 | -0.03 ± 0.016 | -0.0335 ± 0.00071
lMphg:CD40 | -0.0175 ± 0.052 | -0.0365 ± 0.046 | -0.017 ± 0.011 | -0.022 ± 0.028 | -0.05 ± 0.033 | -0.0055 ± 0.0021 | -0.0125 ± 0.0035 | 0.0155 ± 0.00071 | -0.0165 ± 0.019 | -0.01 | -0.0065 ± 0.0035 | -0.025 ± 0.031 | -0.0065 ± 0.013 | -0.024 ± 0.0057 | -0.029 ± 0.0071 | -0.0195 ± 0.005 | -0.005 ± 0.0028 | -0.023 ± 0.051 | -0.0205 ± 0.049 | -0.0575 ± 0.042
lMphg:CXCL8/IL-8 | -0.018 ± 0.0071 | 0.0165 ± 0.019 | -0.0115 ± 0.005 | 0.022 ± 0.014 | 0.0725 ± 0.0092 | 0.003 ± 0.054 | -0.0095 ± 0.069 | 0.0455 ± 0.026 | -0.002 ± 0.017 | 0.0335 ± 0.00071 | 0.115 ± 0.061 | -0.0335 ± 0.028 | -0.0275 ± 0.00071 | -0.0415 ± 0.0078 | -0.0215 ± 0.0035 | -0.0125 ± 0.019 | 0.04 ± 0.05 | 0.0275 ± 0.0078 | 0.0145 ± 0.013 | 0.0335 ± 0.011
CASM3C:CD142/Tissue Factor | -0.0185 ± 0.016 | -0.043 ± 0.024 | -0.01 ± 0.013 | -0.0345 ± 0.021 | 0.007 ± 0.02 | 0.0005 ± 0.028 | -0.006 ± 0.025 | -0.034 ± 0.014 | -0.0095 ± 0.04 | -0.0455 ± 0.037 | -0.0595 ± 0.032 | 0.0065 ± 0.0035 | -0.0175 ± 0.0035 | 0.0095 ± 0.056 | -0.0085 ± 0.005 | -0.0415 ± 0.042 | 0.005 ± 0.073 | 0.018 ± 0.0014 | 0.0095 ± 0.0035 | 0.0025 ± 0.005
